Several values for one entry are separate records, joined by “and”; a condition that tells them apart may be missing. Equal values may be shown once.
Assay: Experimental table stability of AST-2660 in human plasma at room temperature (LC-MS/MS)
Type: in vitro ADME
Details: for AST-2660 concentration, Mean value / AST-2660 concentration, single replicates / RE (%) vs nominal: human plasma, room temperature
Procedure: The detection method established in example 4 was used to detect the content of AST-2660 in the human plasma to be tested.
Matrix: the mixed normal human plasma containing anticoagulant (K2 EDTA) • a: the internal standard working solution: AST-2660-D8 was taken, added with methanol, and diluted to prepare a solution containing about 100 ng per 1 ml. • b: the solution to be tested (no internal standard compound was added to the solution to be tested at this time): it was obtained by taking a blood sample to be tested. • c: the standard working solution (no internal standard compound was added to the standard working solution at this time): an appropriate amount of AST-2660 was taken and accurately weighed, dissolved with methanol, and diluted to prepare a solution containing about 1.0 mg per 1 ml, which was used as the standard working stock solution. An appropriate amount of the standard working stock solution was taken, added with the matrix and diluted to prepare standard working solutions with different concentrations containing about 200 ng, 160 ng, 100 ng, 50 ng, 10 ng, 2.0 ng, 1.0 ng and 0.5 ng per 1 ml, respectively. (The solution was stored at −70° C.) • d: the quality control sample solution: an appropriate amount of AST-2660 was taken and accurately weighed, dissolved with methanol, and diluted to prepare a solution containing about 10 μg per 1 ml, which was used as the quality control working stock solution. An appropriate amount of the quality control working stock solution was taken, added with matrix to prepare quality control working solutions with different concentrations containing about 150 ng, 60 ng, 15 ng, 1.5 ng and 0.5 ng per 1 ml. (The solution was stored at −70° C.)
The solution to be tested, the standard working solution and the quality control sample solution were thawed at room temperature and mixed uniformly. 100 μl of the above solution was respectively taken, added with 20 μl of the internal standard and 500 μl of methanol, and vortexed for 3 minutes to mix uniformly, and then centrifuged for 10 minutes at 2143 rcf. 450 μl of the supernatant was taken and dried, and 150 μl of methanol was added for redissolution, and sonicated. Then the plates were centrifuged for 3 minutes at 4° C. It was obtained by taking […] of supernatant.
Liquid phase conditions: A SHARC 1, 3 μm, 2.1*50 mm or chromatograph column with equivalent performance was used; the mobile phase was a methanol solution comprising low content of ammonium acetate; the mobile phase B was acetonitrile; the gradient elution was performed according to the following table, column temperature: 20° C.; injection volume: 5 μl.
Mass spectrometric conditions: electrospray ion source with negative ion scanning mode; spray potential: −4500 V; ion source temperature: 500° C.; collision energy (CE): −22 eV; declustering potential (DP): −55V; entrance potential (EP): −10V; collision chamber exit potential (CXP): −16V; dwell time: 100 ms; high purity nitrogen was used for all gases; AST-2660 ions pairs: m/z 147.0→m/z 62.9; the internal standard AST-2660-D8 ion pairs: m/z 155.0→m/z 62.9.
The AST-2660 standard working solution, blank sample, zero concentration sample, sample solution to be tested and quality control sample solution with different concentrations after extraction were respectively taken and injected into LC-MS/MS for detection.
Calculation results: the relationship function y=f (x) of the ratio of the peak area of the AST-2660 to that of the internal standard was obtained from AST-2660 standard working solutions with different concentrations. The ratio of the peak area of the AST-2660 to that of the internal standard was determined from the solution to be tested after extraction, and substituted into the relationship function y=f (x) to calculate the concentration of the metabolite II in the solution to be tested.

[1] = DilQC (10-fold dilution) nominal 1500 ng/ml, 0 hour
[2] = DilQC (10-fold dilution) nominal 1500 ng/ml, 4 hours
[3] = DilQC (10-fold dilution) nominal 1500 ng/ml, 24 hours
[4] = QC1 nominal 1.50 ng/ml, 4 hours
[5] = QC1 nominal 1.50 ng/ml, 24 hours
[6] = QC4 nominal 150 ng/ml, 24 hours

SMILES: O=P([O-])(N1CC1)N1CC1.[Na+] [AST-2660]
- stability (in words) (human plasma samples at room temperature): not stable
- AST-2660 concentration, Mean value [1]: 1680 ng/mL
- AST-2660 concentration, single replicates [1]: 1610 ng/mL and 1770 ng/mL and 1700 ng/mL and 1640 ng/mL
- RE (%) vs nominal [1]: 12.0%
- AST-2660 concentration, Mean value [2]: 1593 ng/mL
- AST-2660 concentration, single replicates [2]: 1500 ng/mL and 1710 ng/mL and 1600 ng/mL and 1560 ng/mL
- RE (%) vs nominal [2]: 6.2%
- AST-2660 concentration, Mean value [3]: 1455 ng/mL
- AST-2660 concentration, single replicates [3]: 1380 ng/mL and 1500 ng/mL and 1480 ng/mL and 1460 ng/mL
- RE (%) vs nominal [3]: −3.0%
- AST-2660 concentration, Mean value (QC1 nominal 1.50 ng/ml, 0 hour): 1.42 ng/mL
- AST-2660 concentration, single replicates (QC1 nominal 1.50 ng/ml, 0 hour): 1.44 ng/mL and 1.32 ng/mL and 1.38 ng/mL and 1.55 ng/mL
- RE (%) vs nominal (QC1 nominal 1.50 ng/ml, 0 hour): −5.2%
- AST-2660 concentration, Mean value [4]: 1.35 ng/mL
- AST-2660 concentration, single replicates [4]: 1.34 ng/ml (2×) and 1.31 ng/ml and 1.42 ng/ml
- RE (%) vs nominal [4]: −9.8%
- AST-2660 concentration, Mean value [5]: 1.32 ng/mL
- AST-2660 concentration, single replicates [5]: 1.33 ng/mL and 1.28 ng/mL and 1.38 ng/mL and 1.27 ng/mL
- RE (%) vs nominal [5]: −12.3%
- AST-2660 concentration, Mean value (QC4 nominal 150 ng/ml, 0 hour): 136 ng/mL
- AST-2660 concentration, single replicates (QC4 nominal 150 ng/ml, 0 hour): 130 ng/mL and 142 ng/mL and 135 ng/mL and 137 ng/mL
- RE (%) vs nominal (QC4 nominal 150 ng/ml, 0 hour): −9.3%
- AST-2660 concentration, Mean value (QC4 nominal 150 ng/ml, 4 hours): 138 ng/mL
- AST-2660 concentration, single replicates (QC4 nominal 150 ng/ml, 4 hours): 130 ng/mL and 141 ng/mL and 136 ng/mL and 145 ng/mL
- RE (%) vs nominal (QC4 nominal 150 ng/ml, 4 hours): −8.0%
- AST-2660 concentration, Mean value [6]: 125 ng/mL
- AST-2660 concentration, single replicates [6]: 117 ng/mL and 128 ng/mL and 124 ng/mL and 129 ng/mL
- RE (%) vs nominal [6]: −17.0%

From US20240140970A1, “A […], AND PREPARATION METHOD AND USE THEREOF” (ASCENTAWITS PHARMACEUTICALS, LTD., priority 2021, published 2024)
